# Patent US20190030036A1, “PHOSPHODIESTERASE INHIBITOR TREATMENT” (Cyrano Therapeutics, Inc., priority 2013, published 2019)
# Marks after values point to notes of the source that are not given here.
# Test system: patients with hyposmia
# Experiment: Smell function (DT, RT, ME, H) by forced-choice, three-stimuli, stepwise-staircase technique with four odors; open trial of oral theophylline
# Assay type: in vivo, human
# From the text: Patients initially reported their sensory dysfunction as either loss of taste (e.g., flavor) and/or smell function. This subjective response was documented by objective psychophysical measurements of olfactory function administered to each patient by use of a forced-choice, three-stimuli, stepwise-staircase technique in a fixed, controlled design (1, 53). Efficacy of this technique and results of testing were previously documented in a double-blind clinical trial (53). Four odors were used; they were pyridine (dead-fish odor), nitrobenzene (bitter-almond odor), thiophene (petroleum-like odor) and amyl acetate (banana-oil odor). Detection thresholds (DT), recognition thresholds (RT) and magnitude estimation (ME) values for each odor were determined as previously described (1, 53). Thresholds were converted into bottle units (BU) as previously described (53) and results reported as M±SEM of correct responses for each odor in each treatment group; ME was reported in % and results calculated to obtain M±SEM for each treatment group for all correct responses using data for the four highest odor concentrations presented (from 10^−2M—an absolute odor concentration).
# In addition, each patient graded the hedonic (H) value of each odor presented for these same odor concentrations (from 10^−2M—an absolute odor concentration using a −100−0−+100 scale). […] Results were obtained by calculating the arithmetical sum of each correct recognition response for each odor with respect to its pleasantness, unpleasantness or neutrality. Arithmetic M±SEM were obtained for each treatment group for each odor presented.
# After determination of hyposmia, patients were treated in an open label, fixed design, controlled open trial. Patients were given an oral extended release theophylline in divided daily doses taken in the middle of breakfast and lunch. All patients were initially given 200 mg of theophylline; changes in this dose were made based upon subjective responses to therapy. If at a subsequent return visit, patients reported ≥5% subjective improvement in overall smell function, they continued on this same dose of theophylline and were reevaluated after four to six months of continued treatment. Results from any subsequent return from these improved patients were not included in any subsequent data report. All subsequent comparisons between treated and untreated patients were made only between those patients continuing in the study compared to their own measurements obtained in the untreated state. If patients reported <5% subjective improvement, their theophylline dose was increased by 200 mg daily and they were scheduled for retesting at the study site after two to four months at this new dosage. For patients that reported <5% improvement, this sequence continued until patients reached 800 mg of theophylline, at which time the study was considered completed.
# Patients returned for reevaluation after two to four months of treatment. Measurements of blood serum theophylline were measured by a fluorescence polarization assay (Abbott, Chicago, Ill.). At this time, subjective changes in smell function were measured independently (compared to patient's memory of previous normal smell function monitored by use of the patients' daily measurements) using the scale from −100−0-+100 previously described. After independently recording their subjective responses, smell function was measured for all four odors with DT, RT, ME and H determined without recourse to prior measurements.
# Since data for all measurements from each patient group (local or distant) on each dose level were combined mean and SEM for each measurement (DT, RT, ME, H) of smell function for each treatment group were calculated on this basis. Differences in measurements between before treatment and each treatment level were calculated and significance of differences estimated using Student t tests (values p<0.05 considered significant). […]
# [1] = amyl acetate, oral theophylline 200 mg
# [2] = amyl acetate, oral theophylline 200 mg daily, all patients (199)
# [3] = amyl acetate, oral theophylline 200 mg, Type I hyposmia (57)
# [4] = amyl acetate, oral theophylline 200 mg, Type II hyposmia (138)
# [5] = amyl acetate, oral theophylline 200 mg, Type III hyposmia (4)
# [6] = amyl acetate, oral theophylline 400 mg
# [7] = amyl acetate, oral theophylline 400 mg daily, all patients (120)
# [8] = amyl acetate, oral theophylline 400 mg, Type I hyposmia (33)
# [9] = amyl acetate, oral theophylline 400 mg, Type II hyposmia (85)
# [10] = amyl acetate, oral theophylline 400 mg, Type III hyposmia (2)
# [11] = amyl acetate, oral theophylline 600 mg daily, all patients (160)
# [12] = amyl acetate, oral theophylline 600 mg, Type I hyposmia (51)
# [13] = amyl acetate, oral theophylline 600 mg, Type II hyposmia (105)
# [14] = amyl acetate, oral theophylline 600 mg, Type III hyposmia (4)
# [15] = amyl acetate, oral theophylline 800 mg daily, all patients (28)
# [16] = amyl acetate, oral theophylline 800 mg, Type I hyposmia (12)
# [17] = amyl acetate, oral theophylline 800 mg, Type II hyposmia (16)
# [18] = nitrobenzene, oral theophylline 200 mg
# [19] = nitrobenzene, oral theophylline 200 mg daily, all patients (199)
# [20] = nitrobenzene, oral theophylline 200 mg, Type I hyposmia (57)
# [21] = nitrobenzene, oral theophylline 200 mg, Type II hyposmia (138)
# [22] = nitrobenzene, oral theophylline 200 mg, Type III hyposmia (4)
# [23] = nitrobenzene, oral theophylline 400 mg
# [24] = nitrobenzene, oral theophylline 400 mg daily, all patients (120)
# [25] = nitrobenzene, oral theophylline 400 mg, Type I hyposmia (33)
# [26] = nitrobenzene, oral theophylline 400 mg, Type II hyposmia (85)
# [27] = nitrobenzene, oral theophylline 400 mg, Type III hyposmia (2)
# [28] = nitrobenzene, oral theophylline 600 mg daily, all patients (160)
# [29] = nitrobenzene, oral theophylline 600 mg, Type I hyposmia (51)
# [30] = nitrobenzene, oral theophylline 600 mg, Type II hyposmia (105)
# [31] = nitrobenzene, oral theophylline 600 mg, Type III hyposmia (4)
# [32] = nitrobenzene, oral theophylline 800 mg daily, all patients (28)
# [33] = nitrobenzene, oral theophylline 800 mg, Type I hyposmia (12)
# [34] = nitrobenzene, oral theophylline 800 mg, Type II hyposmia (16)
smiles,measurement,setting,value
Cn1c(=O)c2[nH]cnc2n(C)c1=O [theophylline],increase of H values (more pleasant),[1],2%
same,increase of ME values,[1],5%
same,"DT, detection threshold",[2],7.9 ± 0.2^c BU
same,"H, hedonic estimation",[2],3 ± 1%
same,"ME, magnitude estimation",[2],15 ± 2^d %
same,"RT, recognition threshold",[2],9.9 ± 0.2^c BU
same,"DT, detection threshold",[3],10.5 ± 0.3^d BU
same,"H, hedonic value",[3],4 ± 2^a %
same,"ME, magnitude estimation",[3],6 ± 2^a %
same,"RT, recognition threshold",[3],11.3 ± 0.2^ BU
same,"DT, detection threshold",[4],7.0 ± 0.3^ BU
same,"H, hedonic value",[4],3 ± 2^ %
same,"ME, magnitude estimation",[4],19 ± 2^ %
same,"RT, recognition threshold",[4],9.3 ± 0.2^ BU
same,"DT, detection threshold",[5],2.8 ± 0.5 BU
same,"H, hedonic value",[5],14 ± 13%
same,"ME, magnitude estimation",[5],32 ± 10%
same,"RT, recognition threshold",[5],5.2 ± 1.6 BU
same,ME increases,[6],8%
same,change of H values (became more pleasant),[6],1%
same,"DT, detection threshold",[7],7.1 ± 0.3^b BU
same,"H, hedonic estimation",[7],3 ± 2^ %
same,"ME, magnitude estimation",[7],18 ± 2^c %
same,"RT, recognition threshold",[7],9.3 ± 0.3^b BU
same,"DT, detection threshold",[8],10.1 ± 0.5^a BU
same,"H, hedonic value",[8],5 ± 3^a %
same,"ME, magnitude estimation",[8],7 ± 3^a %
same,"RT, recognition threshold",[8],11.2 ± 0.3^ BU
same,"DT, detection threshold",[9],6.1 ± 0.4^a BU
same,"H, hedonic value",[9],0.3 ± 2.8^ %
same,"ME, magnitude estimation",[9],21 ± 3^ %
same,"RT, recognition threshold",[9],8.8 ± 0.4^a BU
same,"DT, detection threshold",[10],2 BU
same,"H, hedonic value",[10],75%
same,"ME, magnitude estimation",[10],75%
same,"RT, recognition threshold",[10],3 BU
same,"DT, detection threshold",[11],7.8 ± 0.3^a BU
same,"H, hedonic estimation",[11],4 ± 1^ %
same,"ME, magnitude estimation",[11],15 ± 2^c %
same,"RT, recognition threshold",[11],9.6 ± 0.2^a BU
same,"DT, detection threshold",[12],10.1 ± 0.3^a BU
same,"H, hedonic value",[12],−0.4 ± 1^ %
same,"ME, magnitude estimation",[12],5 ± 2^a %
same,"RT, recognition threshold",[12],11.1 ± 0.2^ BU
same,"DT, detection threshold",[13],6.8 ± 0.3^a BU
same,"H, hedonic value",[13],7 ± 2^ %
same,"ME, magnitude estimation",[13],19 ± 2^ %
same,"RT, recognition threshold",[13],8.9 ± 0.3^a BU
same,"DT, detection threshold",[14],2.5 ± 1.0 BU
same,"H, hedonic value",[14],28 ± 19%
same,"ME, magnitude estimation",[14],31 ± 17%
same,"RT, recognition threshold",[14],4.8 ± 1.7 BU
same,"DT, detection threshold",[15],7.2 ± 0.8^ BU
same,"H, hedonic estimation",[15],8 ± 5^ %
same,"ME, magnitude estimation",[15],24 ± 2^a %
same,"RT, recognition threshold",[15],9.0 ± 0.5^b BU
same,"DT, detection threshold",[16],10.6 ± 0.5^ BU
same,"H, hedonic value",[16],−1 ± 4^ %
same,"ME, magnitude estimation",[16],5 ± 3^a %
same,"RT, recognition threshold",[16],11.6 ± 0.4^ BU
same,"DT, detection threshold",[17],4.6 ± 0.7^a BU
same,"H, hedonic value",[17],13 ± 9^ %
same,"ME, magnitude estimation",[17],38 ± 6^c %
same,"RT, recognition threshold",[17],7.1 ± 0.6^a BU
same,increase of H values (more pleasant),[18],2%
same,increase of ME values,[18],5%
same,"DT, detection threshold",[19],7.8 ± 0.2^d BU
same,"H, hedonic estimation",[19],6 ± 2^a %
same,"ME, magnitude estimation",[19],17 ± 2 ^ %
same,"RT, recognition threshold",[19],9.5 ± 0.2^a BU
same,"DT, detection threshold",[20],10.3 ± 0.3^a BU
same,"H, hedonic value",[20],4 ± 2^a %
same,"ME, magnitude estimation",[20],5 ± 2^a %
same,"RT, recognition threshold",[20],11.2 ± 0.2^d BU
same,"DT, detection threshold",[21],6.9 ± 0.3^a BU
same,"H, hedonic value",[21],7 ± 2^ %
same,"ME, magnitude estimation",[21],22 ± 2^ %
same,"RT, recognition threshold",[21],8.8 ± 0.3^ BU
same,"DT, detection threshold",[22],3.8 ± 0.7 BU
same,"H, hedonic value",[22],13 ± 12%
same,"ME, magnitude estimation",[22],33 ± 8%
same,"RT, recognition threshold",[22],5.0 ± 0.6 BU
same,ME increases,[23],11%
same,change of H values (became more pleasant),[23],4%
same,"DT, detection threshold",[24],7.2 ± 0.3^c BU
same,"H, hedonic estimation",[24],8 ± 3^a %
same,"ME, magnitude estimation",[24],23 ± 2^a %
same,"RT, recognition threshold",[24],8.9 ± 0.3^b BU
same,"DT, detection threshold",[25],9.8 ± 0.5^a BU
same,"H, hedonic value",[25],3 ± 3^a %
same,"ME, magnitude estimation",[25],8 ± 3^a %
same,"RT, recognition threshold",[25],10.9 ± 0.4^e BU
same,"DT, detection threshold",[26],6.3 ± 0.4^a BU
same,"H, hedonic value",[26],11 ± 3^ %
same,"ME, magnitude estimation",[26],27 ± 3^a %
same,"RT, recognition threshold",[26],8.2 ± 0.4^a BU
same,"DT, detection threshold",[27],2.5 BU
same,"H, hedonic value",[27],−62%
same,"ME, magnitude estimation",[27],79%
same,"RT, recognition threshold",[27],4.0 BU
same,"DT, detection threshold",[28],7.8 ± 0.3^a BU
same,"H, hedonic estimation",[28],8 ± 2^d %
same,"ME, magnitude estimation",[28],18 ± 2^d %
same,"RT, recognition threshold",[28],9.1 ± 0.2^c BU
same,"DT, detection threshold",[29],9.9 ± 0.4^c BU
same,"H, hedonic value",[29],2 ± 2^ %
same,"ME, magnitude estimation",[29],6 ± 2^a %
same,"RT, recognition threshold",[29],10.8 ± 0.3^ BU
same,"DT, detection threshold",[30],6.8 ± 0.3^a BU
same,"H, hedonic value",[30],11 ± 2^ %
same,"ME, magnitude estimation",[30],24 ± 2^ %
same,"RT, recognition threshold",[30],8.4 ± 0.3^ BU
same,"DT, detection threshold",[31],3.8 ± 0.9 BU
same,"H, hedonic value",[31],12 ± 16%
same,"ME, magnitude estimation",[31],33 ± 13%
same,"RT, recognition threshold",[31],4.5 ± 1.3 BU
same,"DT, detection threshold",[32],7.0 ± 0.8^d BU
same,"H, hedonic estimation",[32],13 ± 7 ^ %
same,"ME, magnitude estimation",[32],25 ± 6 ^ %
same,"RT, recognition threshold",[32],7.8 ± 0.8^d BU
same,"DT, detection threshold",[33],10.1 ± 0.8^ BU
same,"H, hedonic value",[33],2 ± 2^a %
same,"ME, magnitude estimation",[33],4 ± 3^a %
same,"RT, recognition threshold",[33],11.3 ± 0.7^ BU
same,"DT, detection threshold",[34],4.6 ± 0.9^a BU
same,"H, hedonic value",[34],22 ± 11^ %
same,"ME, magnitude estimation",[34],42 ± 8^b %
same,"RT, recognition threshold",[34],5.1 ± 0.9^a BU
same,total mean increase of ME for all odors,oral theophylline 200 mg,5.1%
same,increase of H values for amyl acetate,"oral theophylline 200 mg daily, not statistically significant",50%
same,total mean increase of ME for all odors,oral theophylline 400 mg,10.4%
same,decrease of H values for thiophene,oral theophylline 400 mg daily,40%
same,increase of H values for nitrobenzene,"oral theophylline 400 mg daily, not statistically significant",50%
